Laboratory results: patent EP0357061B1, “Angiogenesis inhibitory agent” (priority 1988, dated 1990)
Converted amounts (≈) assume the structure as drawn. Read-outs that look alike come from different tables or passages of the source. Marks after values point to notes of the source that are not given here.

Legend:
[1] = tested on: mouse reticulum cell sarcoma (M 5076); assay: Suppression of tumor formation in vivo (M 5076); design: species or system C57BL/6N mice; conditions: 30 mg/day subcutaneously, 10 injections over 12 days; tumor volume one day after the final injection
Excerpt: The tumor used in this assay was mouse reticulum cell sarcoma (M 5076), maintained by intraperitoneal transplantation into male C57BL/6N mice. The tumor cells in ascites were collected by centrifugation, and suspended in saline. The cell suspension (2 x 10⁶ cells/100 »l/mouse) was inoculated into right flanks of mice. Tumor-bearing mice were subcutaneously treated with the compound (I) (shown by Example Numbers) suspended in 5% arabic gum solution containing 1% of ethanol, for 12 days beginning one day after tumor inoculation (10 injections). The tumor growth was determined by measuring tumor size in two directions with calipers at intervals of a few days. The tumor volumes were calculated by the following formula. Tumor volume (mm³) = length x (width)² […]. [formula]

[2] = tested on: Chick Chorioallantoic Membranes; assay: shell-less chorioallantoic membrane (CAM) assay; format: in vivo; conditions: after 48 - 72 hours
Procedure: The shell-less chorioallantoic membrane (CAM) assay was carried out by the method of Folkman et al. (R.Crum. S.Szabo and J.Folkman; Science. 230. 1375 (1985)) as follows: three-day chick embryos were removed from their shells to petri dishes (Falcon 1005) under sterile hood and cultured for further 3 days.
AGM-1470 was dissolved to a 0.45% methylcellulose aqueous solution and aliquots of 10 »l were pipetted onto Teflon rods. After the solution had dried, the methylcellulose disks (about 2 mm in diameter) containing the compound were implanted on the CAM of 6-day embryos.
An avascular zone represents a region in which regression of pre-existing vessels has occured.
Percent of avascular zones was calculated by counting the disks forming avascular zones per the total disks tested. In each group there were 12 to 16 embryos.

[3] = tested on: Human umbilical vein endothelial cells (HUVE); assay: Inhibition of human endothelial cell growth (MTT); format: cell-based; conditions: rbFGF 2 ng/ml, 5 day culture; for IC50: Homo sapiens, Endothelial cell, 120 h, read-out: (IC₅₀)
Procedure: Human umbilical vein endothelial cells (HUVE) were isolated by perfusion of an umbilical vein with a trypsin-containing medium. HUVE were cultured in GIT medium (Diago Eiyou Kagaku, Co., Japan) supplemented with 2.5% fetal bovine serum and 2.0 ng/ml of recombinant human basic fibroblast growth factor (rbFGF, Biotechnology Research Laboratories, Takeda, Osaka, Japan) at 37°C under 5% CO₂ and 7% O₂. HUVE were plated on 96-well microtiter plates (Nunc, 1-67008) at the cell density of 2 x 10³/100 »l of medium. The following day, 100 »l of medium containing rbFGF (2 ng/ml at the final concentration) and each compound (I) (shown by Example Numbers) at various concentrations were added to each well. […] After 5 day culture, medium was removed, 100 »l of 1 mg/ml of MTT (3-(4,5-dimethyl-2-thiazolyl)- 2,5-diphenyl-2H-tetrazolium bromide) solution was added to wells, and microtiters were kept at 37°C for 4 hours. Then, 100 »l of 10% sodium dodecyl sulfate (SDS) solution was added to wells, microtiters were kept at 37° for 5-6 hours. To determine the effects on cell number, the optical density ([…]) of each well was measured using an optical densitometer. […]

[4] = tested on: bFGF-induced angiogenesis; assay: rat cornea micropocket method (angiogenesis inhibitory activity); format: in vivo, Sprague-Dawley rats; conditions: rats with angiogenesis inhibitory activity / rats tested, sample pellet 20 »g
Procedure: The product compound (I) obtained in the examples given below were evaluated for angiogenesis inhibitory activity by the rat cornea micropocket method.
Essentially the method of Gimbrone et al. [J. National Cancer Institute, 52, 413-419 (1974)] was followed. Thus, adult male Sprague-Dawley rats (11 to 16 weeks of age) were anesthetized with nembutal and locally anesthetized by instillation of xylocaine eyedrops onto the eyeball. The cornea was incised to a length of about 2 mm at about 2mm inside from the corneal circumference by means of an injection needle, and a sustained release pellet containing basic fibroblast growth factor (bFGF; bovine brain-derived, purified product; R & D) and a sustained release pellet containing the test sample were inserted side by side into the incision so that the bFGF pellet was located on the central side in the cornea. In the control group, the bFGF pellet and a sample-free pellet were inserted into the cornea. After 7 days and after 10 days, the cornea was observed under a stereoscopic microscope.
The sustained release pellets were prepared in the following manner. An ethylene-vinyl acetate copolymer (Takeda Chemical Industries) was dissolved in dichloromethane to a concentration of 8%. A 3-»l portion of the solution was air-dried on a glass dish, an aqueous solution of bFGF (250 ng) was then placed thereon and air-dried and, finally 3 »l of the above ethylene-vinyl acetate copolymer solution was placed further thereon and air-dried to give a laminate consisting of two copolymer layers and a bFGF layer sandwiched therebetween. This sandwich sheet was made round into a bFGF pellet. The test sample pellets were prepared by dissolving each sample in ethanol in a concentration of 20 »g/2 »l, mixing the solution (2 »l) with 6 »l of an ethylene-vinyl acetate copolymer solution, air-drying the mixed solution on a glass dish and making the thus-obtained sheet round.

B16 Mouse Melanoma = format: in vivo
Procedure: Using the B16 Mouse Melanoma model described in Folkman et al., Science, 221:719-725 (1983), the angiogenesis inhibitory activity of AGM-1470 was further evaluated. Treatment (Rx) usually started when tumors were approximately 70-100 mm³, approximately 9 to 10 days after inoculation. Tumors were matched for size before inclusion in treated and untreated groups. AGM-1470 was dissolved in isotonic solution by incubating with glass beads and vigorously shaking overnight at 4°C. This preparation was administered subcutaneously at 30 mg/kg every other day.
Tumor growth is presented as a T/C ratio, as defined below. In essence, a ratio equal to "+ 1" means no inhibition, a ratio equal to "0" means complete suppression of growth, and a negative ratio indicates tumor regression. [formula]

[5] = tested on: Bovine capillary endothelial cells; assay: Boyden chamber assay, capillary endothelial cell migration; format: cell-based; conditions: endothelial mitogen 200 »g/ml, 4 hours
Procedure: The Boyden chamber assay was carried out using a modification of the method of Falk et al., J. Immunol. Meth., 33:239-247 (1980) as follows: Bovine capillary endothelial cells were plated at 1.5 x 10⁴ cells per well in serum-free DMEM (Dulbecco's Modified Eagle's Medium) on one side of nucleopore filters pre-coated with fibronectin (7.3 »g fibronectin/ml PBS). […] Cells were exposed to endothelial mitogen (Biomedical Technologies, Massachusetts) at 200 »g/ml and different concentrations of the AGM-1470 in serum-free DMEM for 4 hours at 37°C. At the end of this incubation, the number of cells that migrated through 8» pores in the filters was determined by counting cells with an ocular grid at 100 X in quadruplicate.

CO[C@@H]1[C@H](OC(=O)NC(=O)CCl)CC[C@]2(CO2)[C@H]1[C@@]1(C)O[C@@H]1CC=C(C)C [Example 8, O-Chloroacetylcarbamoylfumagillol]
T/C (%) [1]: 14% | percent of avascular zones ([2]; dose 1 »g/10 »l methylcellulose): 33 | percent of avascular zones ([2]; dose 10 »g/10 »l methylcellulose): 62 | percent of avascular zones ([2]; dose 25 »g/10 »l methylcellulose): 100 | IC50 [3]: 0.01 ng/mL (≈ 0.0249 nM) | Inhibition rate ([4]; judged after 7 days): 6/6* | treated remained alive past day 55 (B16 Mouse Melanoma; 30 mg/kg subcutaneously every other day): Day 37 100% untreated dead 50% AGM-1470 treated dead (50% of treated remained alive past day 55) | AGM-1470 treated dead (B16 Mouse Melanoma; Day 37 (100% untreated dead), 30 mg/kg subcutaneously every other day): Day 37 100% untreated dead 50% AGM-1470 treated dead (50% of treated remained alive past day 55) | toxicity (B16 Mouse Melanoma; mouse, in vivo): little or no toxicity | T/C (B16 Mouse Melanoma; time of Rx 2 wk, 30 mg/kg subcutaneously every other day): 0.47 | T/C (B16 Mouse Melanoma; time of Rx 3 wk, 30 mg/kg subcutaneously every other day): 0.20 | IC50 ([5]; Bos taurus, Endothelial cell, read-out: Half maximal inhibition of endothelial mitogen-induced migration): ~0.1 ng/mL (≈ 0.249 nM) | inhibition of cell migration ([5]; dose of 100 »g/ml): completely inhibited | Significant inhibition of migration, doses as low as [5]: 10 femptograms/ml

CO[C@@H]1[C@H](OC(=O)NC(=O)CCl)CC[C@]2(CO2)[C@H]1[C@@]1(C)O[C@@H]1CCC(C)C [Example 51, O-Chloroacetylcarbamoyldihydrofumagillol]
T/C (%) [1]: 22% | IC50 [3]: 0.14 ng/mL (≈ 0.347 nM) | Inhibition rate ([4]; judged after 10 days): 7/14

C=CC(=O)NC(=O)O[C@@H]1CC[C@]2(CO2)[C@@H]([C@@]2(C)O[C@@H]2CC=C(C)C)[C@@H]1OC [Example 58, O-Acryloylcarbamoylfumagillol]
Inhibition rate ([4]; judged after 10 days): 6/6

CO[C@@H]1[C@H](OC(=O)NC(=O)CSc2nc3ccccc3o2)CC[C@]2(CO2)[C@H]1[C@@]1(C)O[C@@H]1CC=C(C)C [Example 60, O-[(2-Benzoxazolyl)thioacetylcarbamoyl]fumagillol]
Inhibition rate ([4]; judged after 10 days): 4/6

CO[C@@H]1[C@H](OC(=O)NC(=O)CSc2nc3ccccc3[nH]2)CC[C@]2(CO2)[C@H]1[C@@]1(C)O[C@@H]1CC=C(C)C [Example 61, O-[(2-Benzoimidazolyl)thioacetylcarbamoyl]fumagillol]
Inhibition rate ([4]; judged after 10 days): 7/7

CO[C@@H]1[C@H](OC(=O)NC(=O)CSc2cccc3cccnc23)CC[C@]2(CO2)[C@H]1[C@@]1(C)O[C@@H]1CC=C(C)C [Example 62, O-[(8-Quinolyl)thioacetylcarbamoyl]fumagillol]
Inhibition rate ([4]; judged after 10 days): 7/7

CO[C@@H]1[C@H](OC(=O)NC(=O)CSc2ccccn2)CC[C@]2(CO2)[C@H]1[C@@]1(C)O[C@@H]1CC=C(C)C [Example 63, O-[(2-Pyridyl)thioacetylcarbamoyl]fumagillol]
Inhibition rate ([4]; judged after 10 days): 6/6

CO[C@@H]1[C@H](OC(=O)NC(=O)CSc2ccncc2)CC[C@]2(CO2)[C@H]1[C@@]1(C)O[C@@H]1CC=C(C)C [Example 64, O-[(4-Pyridyl)thioacetylcarbamoyl]fumagillol]
Inhibition rate ([4]; judged after 10 days): 5/5

CO[C@@H]1[C@H](OC(=O)NC(=O)CSC)CC[C@]2(CO2)[C@H]1[C@@]1(C)O[C@@H]1CC=C(C)C [Example 65, O-(Methylthioacetylcarbamoyl)fumagillol]
Inhibition rate ([4]; judged after 10 days): 8/8

COC1C(OC(=O)NC(=O)CSc2cnn[nH]2)CCC2(CO2)C1C1(C)OC1CC=C(C)C (stereo not drawn) [Example 67, O-[(1,2,3-Triazol-5-yl)thioacetylcarbamoyl]fumagillol]
Inhibition rate ([4]; judged after 10 days): 5/5

COC1C(OC(=O)NC(=O)CSc2cc[n+](C)cc2)CCC2(CO2)C1C1(C)OC1CC=C(C)C (stereo not drawn) [Example 69, O-[(N-Methylpyridin-4-ylium)thioacetylcarbamoyl]fumagillol iodide]
Inhibition rate ([4]; judged after 10 days): 6/6

CCOC(=O)NC(=O)OC1CCC2(CO2)C(C2(C)OC2CC=C(C)C)C1OC (stereo not drawn) [Example 70, O-[N-(Ethoxycarbonyl)carbamoyl]fumagillol]
Inhibition rate ([4]; judged after 10 days): 5/5

COC1C(OC(=O)NC(=O)NC(=O)c2ccccc2)CCC2(CO2)C1C1(C)OC1CC=C(C)C (stereo not drawn) [Example 75, O-(N'-Benzoylallophanoyl)fumagillol]
Inhibition rate ([4]; judged after 10 days): 8/8

O-Chloroacetylcarbamoyl-6'b-hydroxyfumagillol [Example 76]
T/C (%) [1]: 29% | (IC₅₀) [3]: 0.12 ng/mL
